# Read-outs that look alike come from different tables or passages of the source.
# Key:
# [1] = test system: Tetranychus urticae; assay: Leaf disc spray test, 24-well plate, mortality after 6 days (Table 2.2); type: in vivo
# Procedure: 2.3 Tetranychus urticae (Two-Spotted Spider Mite)
# Bean leaf discs were placed on agar in 24-well microtiter plates sprayed with test solutions. After drying, the leaf discs were infested with a mite population of mixed ages. After an incubation period of 6 days, samples were checked for larval mortality, and adult mortality.
# [2] = test system: Heliothis virescens; assay: Egg and larval mortality on artificial diet, 24-well plate, 4 days; type: in vivo
# Procedure: 2.1 Heliothis virescens (Tobacco Budworm)
# Eggs (0-24 h old) were placed in a 24-well microtiter plate on artificial diet and treated with test solutions by pipetting. After an incubation period of 4 days, samples were checked for egg mortality and larval mortality.
# [3] = test system: Aspergillus parasiticus; assay: In vitro antifungal checkerboard test, fungal growth by OD450 in 96-well microtiter plates; type: cell-based; conditions: for Azoxystrobin Inhibition (%): Azoxystrobin alone
# Procedure: (§1) In vitro antifungal activity of fungicides in combination with a compound of formula (II) was evaluated in 96 well-microtiter plate system using the checkerboard method (Vitale, R. G, Afeltra, J., and Dannaoui, E. 2005: Methods in Molecular Medicine, Vol. 118, Antifungal Agents: Methods and Protocols p. 143-152). Active ingredients were two-fold serially diluted in DMSO and mixed with double strength Potato Dextrose Broth or Alkyl Ester agar (AE medium, Miguez, M., Reeve, C., Wood, P. M. and Hollomon, D. W. (2004), Alternative oxidase reduces the sensitivity of Mycosphaerella graminicola to QOI fungicides. Pest. Manag. Sci., 60: 3-7) before filled into wells according to the checkerboard format. Each dilution well containing was inoculated with fungal spore suspension to receive a final concentration of 1×10^4 spores/ml per well. Wells of last column containing only medium and spore suspension were included as control. Three replicated microtiter plates were used in each test system. Fungal growth in each well of the micro-plates was assessed spectrophotometrically at OD450 nm (16-scan point spectrophotometer, Tecan) after inoculation [OD(0 h)=background value] and after an incubation period of 72 h [OD(72 h)] at 25° C. in the dark. Fungal growth was described as increase in OD450 nm during the time interval from 0 h to 72 h [OD(72 h)-OD(0 h)]. Fungal growth in each well of the micro-plates was assessed spectrophotometrically at OD450 nm (16-scan point spectrophotometer, Tecan) after inoculation and after an incubation period of 3-6 days at 25° C. in the dark. Fungal growth was described as increase in OD450 nm during incubation period.
# [4] = test system: Myzus persicae; assay: Leaf disc spray test, 24-well plate, mortality after 6 days (Table 2.3); type: in vivo
# Procedure: 2.2 Myzus persicae (Green Peach Aphid)
# Sunflower leaf discs were placed on agar in a 24-well microtiter plate and sprayed with test solutions. After drying, the leaf discs were infested with an aphid population of mixed ages. After an incubation period of 6 days, samples were checked for mortality.
# [5] = test system: Fusarium culmorum; assay: In vitro antifungal checkerboard test, fungal growth by OD450 in 96-well microtiter plates; type: cell-based
# Procedure: as §1
# [6] = test system: Pyrenophora teres; assay: as above; type: cell-based; conditions: for Sedaxane Inhibition (%): Sedaxane alone
# Procedure: as §1
# [7] = test system: Fusarium culmorum; Aspergillus parasiticus; Pyrenophora teres; assay: In vitro antifungal checkerboard test, overall statement on Tables 1.1 to 1.5; type: cell-based
# Procedure: as §1
# [8] = Prothioconazole alone, read-out: Prothioconazole Inhibition (%)
# [9] = Thiabendazole alone, read-out: Thiabendazole Inhibition (%)
# [10] = Formula (II) 0.000003 ppm alone
# [11] = Compound II alone, read-out: Compound II Inhibition (%)
# [12] = Tebuconazole alone, read-out: Tebuconazole Inhibition (%)
compound,measurement,setting,value
"CNC(=O)c1cc(Cl)cc(C)c1NC(=O)c1cc(Br)nn1-c1ncccc1Cl [Chlorantraniliprole, chlorantraniliprole, reference compound]",% control (average of 2 reps),[1]; Chlorantraniliprole 400 ppm alone,95%
same,% control (average of 2 reps),[2]; Chlorantraniliprole 0.4 ppm alone,90%
"CNC(=O)c1cc(C#N)cc(C)c1NC(=O)c1cc(Br)nn1-c1ncccc1Cl [Cyantraniliprole, cyantraniliprole, reference compound]",% control (average of 2 reps),[1]; Cyantraniliprole 100 ppm alone,95%
same,% control (average of 2 reps),[2]; Cyantraniliprole 0.8 ppm alone,100%
"CO/C=C(/C(=O)OC)c1ccccc1Oc1cc(Oc2ccccc2C#N)ncn1 [Azoxystrobin, azoxystrobin, reference compound]",Azoxystrobin Inhibition (%),[3]; 8 ppm,82.8%
same,Azoxystrobin Inhibition (%),[3]; 16 ppm,84.5%
same,Azoxystrobin Inhibition (%),[3]; 32 ppm,78.5%
same,Azoxystrobin Inhibition (%),[3]; 64 ppm,60.8%
"CN1COCN(Cc2cnc(Cl)s2)/C1=N\[N+](=O)[O-] [Thiamethoxam, thiamethoxam, reference compound]",% control (average of 2 reps),[4]; Thiamethoxam 3 ppm alone,100%
"CN/C(=N\[N+](=O)[O-])NCc1cnc(Cl)s1 [Clothianidin, clothianidin, reference compound]",% control (average of 2 reps),[4]; Clothianidin 3 ppm alone,100%
same,% control (average of 2 reps),[2]; Clothianidin 50 ppm alone,100%
"OC(Cc1ccccc1Cl)(Cn1nc[nH]c1=S)C1(Cl)CC1 (centres unmarked) [Prothioconazole, prothioconazole, reference compound]",inhibition at 64 ppm,[5]; [8],97.3%
same,inhibition at 128 ppm,[5]; [8],95%
"c1ccc2[nH]c(-c3cscn3)nc2c1 [Thiabendazole, thiabendazole, reference compound]",inhibition at 64 ppm,[5]; [9],98.3%
same,inhibition at 128 ppm,[5]; [9],99.4%
"Cc1c(F)c(F)c(COC(=O)[C@@H]2[C@H](/C=C(\Cl)C(F)(F)F)C2(C)C)c(F)c1F (racemic) [Tefluthrin, tefluthrin, reference compound]",% control (average of 2 reps),[1]; Tefluthrin 100 ppm alone,90%
same,% control (average of 2 reps),[2]; Tefluthrin 100 ppm alone,95%
CC1=C[C@H](O/C=C2/C(=O)NC3c4ccccc4CC23)OC1=O (some centres unmarked) [Compound II],% control (average of 2 reps),[4]; [10],0%
same,% control (average of 2 reps),[4]; Formula (II) 0.0003 ppm alone,0%
same,% control (average of 2 reps),[4]; Formula (II) 0.03 ppm alone,0%
same,% control (average of 2 reps),[4]; Formula (II) 1 ppm alone,0%
same,antagonism of the activity of the insecticides,[4]; mixtures of Table 2.3,did not antagonise the activity of any of the insecticides
same,inhibition at 0.25 ppm,"[6]; Pyrenophora teres, Compound II alone, 0.25 ppm",0%
same,inhibition at 0.5 ppm,"[6]; Pyrenophora teres, Compound II alone, 0.5 ppm",0%
same,inhibition at 1 ppm,"[6]; Pyrenophora teres, Compound II alone, 1 ppm",0%
same,inhibition at 2 ppm,"[6]; Pyrenophora teres, Compound II alone, 2 ppm",0%
same,inhibition at 4 ppm,"[6]; Pyrenophora teres, Compound II alone, 4 ppm",0%
same,inhibition at 8 ppm,"[6]; Pyrenophora teres, Compound II alone, 8 ppm",0%
same,inhibition at 16 ppm,"[6]; Pyrenophora teres, Compound II alone, 16 ppm",0%
same,inhibition at 32 ppm,"[6]; Pyrenophora teres, Compound II alone, 32 ppm",0%
same,inhibition at 64 ppm,"[6]; Pyrenophora teres, Compound II alone, 64 ppm",0%
same,inhibition at 128 ppm,"[6]; Pyrenophora teres, Compound II alone, 128 ppm",3.9%
same,inhibition at 0.0625 ppm,"[5]; Compound II alone, 0.0625 ppm",1.8%
same,inhibition at 0.125 ppm,"[5]; Compound II alone, 0.125 ppm",6.5%
same,inhibition at 0.25 ppm,"[5]; Compound II alone, 0.25 ppm",3.2%
same,inhibition at 0.5 ppm,"[5]; Compound II alone, 0.5 ppm",1.2%
same,inhibition at 1 ppm,"[5]; Compound II alone, 1 ppm",0%
same,inhibition at 2 ppm,"[5]; Compound II alone, 2 ppm",2.5%
same,inhibition at 4 ppm,[5]; [11],1.3%
same,inhibition at 8 ppm,[5]; [11],0%
same,inhibition at 16 ppm,"[5]; Compound II alone, 16 ppm",0%
same,inhibition at 32 ppm,"[5]; Compound II alone, 32 ppm",0%
same,inhibition at 0.125 ppm,"[3]; Aspergillus parasiticus, Compound II alone, 0.125 ppm",8.7%
same,inhibition at 0.25 ppm,"[3]; Aspergillus parasiticus, Compound II alone, 0.25 ppm",11.3%
same,inhibition at 0.5 ppm,"[3]; Aspergillus parasiticus, Compound II alone, 0.5 ppm",9.3%
same,inhibition at 1 ppm,"[3]; Aspergillus parasiticus, Compound II alone, 1 ppm",9.6%
same,inhibition at 2 ppm,"[3]; Aspergillus parasiticus, Compound II alone, 2 ppm",0.5%
same,inhibition at 4 ppm,"[3]; Aspergillus parasiticus, Compound II alone, 4 ppm",5.4%
same,inhibition at 8 ppm,"[3]; Aspergillus parasiticus, Compound II alone, 8 ppm",20.5%
same,inhibition at 16 ppm,"[3]; Aspergillus parasiticus, Compound II alone, 16 ppm",22.1%
same,inhibition at 32 ppm,"[3]; Aspergillus parasiticus, Compound II alone, 32 ppm",2%
same,inhibition at 64 ppm,"[3]; Aspergillus parasiticus, Compound II alone, 64 ppm",11.3%
same,synergistic effect on the activity of fungicides,[7]; at some rates,provides a synergistic effect on the activity of fungicides at some rates
same,fungicidal activity of the compound of formula (II) alone,"[7]; in general, Tables 1.1 to 1.5","did not cause any, or only very low levels of fungicidal activity"
same,antagonism of the activity of the fungicides tested,"[7]; in general, mixtures of Tables 1.1 to 1.5",did not antagonise the activity of any of the fungicides tested
same,% control (average of 2 reps),[1]; [10],0%
same,% control (average of 2 reps),[1]; Formula (II) 0.0003 ppm alone,0%
same,% control (average of 2 reps),[1]; Formula (II) 0.03 ppm alone,0%
same,% control (average of 2 reps),[1]; Formula (II) 1 ppm alone,0%
same,antagonism of the activity of the insecticides,[1]; mixtures of Table 2.2,did not antagonise the activity of any of the insecticides
same,% control (average of 2 reps),[2]; [10],0%
same,% control (average of 2 reps),[2]; Formula (II) 0.0003 ppm alone,0%
same,% control (average of 2 reps),[2]; Formula (II) 0.03 ppm alone,0%
same,% control (average of 2 reps),[2]; Formula (II) 1 ppm alone,0%
same,antagonism of the activity of the insecticides,[2]; mixtures of Table 2.1,did not antagonise the activity of any of the insecticides
"Cn1cc(C(=O)Nc2ccccc2C2CC2C2CC2)c(C(F)F)n1 (centres unmarked) [Sedaxane, sedaxane, reference compound]",Sedaxane Inhibition (%),[6]; 4 ppm,62.5%
same,Sedaxane Inhibition (%),[6]; 8 ppm,81.2%
same,Sedaxane Inhibition (%),[6]; 16 ppm,82.1%
same,Sedaxane Inhibition (%),[6]; 32 ppm,85.9%
same,Sedaxane Inhibition (%),[6]; 64 ppm,88.1%
"CC(C)(C)C(O)(CCc1ccc(Cl)cc1)Cn1cncn1 (centres unmarked) [Tebuconazole, tebuconazole, reference compound]",inhibition at 4 ppm,[5]; [12],97.1%
same,inhibition at 8 ppm,[5]; [12],90.1%
"CC(c1ccc(C(F)(F)F)nc1)S(C)(=O)=NC#N (centres unmarked) [Sulfoxaflor, sulfoxaflor, reference compound]",% control (average of 2 reps),[4]; Sulfoxaflor 0.8 ppm alone,100%
"O=[N+]([O-])NC1=NCCN1Cc1ccc(Cl)nc1 [Imidacloprid, imidacloprid, reference compound]",% control (average of 2 reps),[4]; Imidacloprid 1.6 ppm alone,100%
same,% control (average of 2 reps),[2]; Imidacloprid 200 ppm alone,100%
abamectin [reference compound],% control (average of 2 reps),[1]; Abamectin 0.2 ppm alone,100%
same,% control (average of 2 reps),[2]; Abamectin 3 ppm alone,95%

# Reference: US20150189876A1, “CROP ENHANCEMENT COMPOSITIONS” (Syngenta Participations AG, priority 2012, published 2015)
